Patent publication US4228292A, “N-Substituted benzothiazolines and benzoxazolines and their use as herbicides and plant growth regulants” (Monsanto Company, priority 1978, dated 1980)

Assays:
Assay type in all cases: in vivo
Soybean [1] = test: post-emergent herbicidal test; conditions: L, 4 WAT
Experimental: (§1) The post-emergent tests were conducted as follows:
(§2) The herbicidal active ingredients are applied in spray form to two or three-week old specimens of various plant species. The spray, a solution or wettable powder suspension containing the appropriate rate of herbicidal active ingredient to give the desired test rate and a surfactant, is applied to the plants. The treated plants are placed in a greenhouse and approximately two or four weeks later the effects are observed and recorded. The results are shown in Tables IX and X in which the post-emergent herbicidal rating code is as follows: […]

Sorghum [2] = test: post-emergent herbicidal test; conditions: P, 4 WAT
Experimental: as §1, §2

Rice [3] = test: post-emergent herbicidal test; conditions: O, 4 WAT
Experimental: as §1, §2

Wild Buckwheat [4] = test: post-emergent herbicidal test; conditions: Q, 4 WAT
Experimental: as §1, §2

Hemp Sesbania [5] = test: post-emergent herbicidal test; conditions: R, 4 WAT
Experimental: as §1, §2

Wheat [6] = test: post-emergent herbicidal test; conditions: N, 4 WAT
Experimental: as §1, §2

Crabgrass [7] = test: post-emergent herbicidal test; conditions: T, 4 WAT
Experimental: as §1, §2

Sugar Beet [8] = test: post-emergent herbicidal test; conditions: M, 4 WAT
Experimental: as §1, §2

Panicum Spp [9] = test: post-emergent herbicidal test; conditions: S, 4 WAT
Experimental: as §1, §2

Soybean [10] = test: pre-emergent herbicidal test; conditions: L, 4 WAT
Experimental: (§3) The pre-emergent test was conducted as follows:
(§4) A good grade of top soil was placed in aluminum pans and compactd to a depth of 0.95 to 1.27 cm. from the top of the pan. On the top of the soil was placed a predetermined number of seeds or vegetative propagules of various plant species. The soil required to level fill the pans after seeding or adding vegetative propagules was weighed into a pan. A known amount of the herbicidal active ingredient applied in a solvent or as a wettable powder and the soil were thoroughly mixed, and used as a cover layer for prepared pans. After treatment the pans were moved into a greenhouse bench where they were watered from below as needed to give adequate moisture for germination and growth.
(§5) A herbicidal rating code was used to signify the extent of phytotoxicity of each species. The ratings are defined as follows: […]

Sorghum [11] = test: pre-emergent herbicidal test; conditions: P, 4 WAT
Experimental: as §3, §4, §5

Rice [12] = test: pre-emergent herbicidal test; conditions: O, 4 WAT
Experimental: as §3, §4, §5

Wild Buckwheat [13] = test: pre-emergent herbicidal test; conditions: Q, 4 WAT
Experimental: as §3, §4, §5

Hemp Sesbania [14] = test: pre-emergent herbicidal test; conditions: R, 4 WAT
Experimental: as §3, §4, §5

Wheat [15] = test: pre-emergent herbicidal test; conditions: N, 4 WAT
Experimental: as §3, §4, §5

Crabgrass [16] = test: pre-emergent herbicidal test; conditions: T, 4 WAT
Experimental: as §3, §4, §5

Sugar Beet [17] = test: pre-emergent herbicidal test; conditions: M, 4 WAT
Experimental: as §3, §4, §5

Panicum Spp [18] = test: pre-emergent herbicidal test; conditions: S, 4 WAT
Experimental: as §3, §4, §5
Further: ranges in brackets are in %.

## CCOC(=N)Cn1c(=O)sc2ccccc21 [Compound 12]
Soybean [1]; 0.28 kg/h
  post-emergent herbicidal rating: 1 (25-49)
Soybean [1]; 1.12 kg/h
  post-emergent herbicidal rating: 1 (25-49)
Soybean [1]; 5.6 kg/h
  post-emergent herbicidal rating: 2 (50-74)
Sorghum [2]; 0.28 kg/h
  post-emergent herbicidal rating: 0 (0-24)
Sorghum [2]; 1.12 kg/h
  post-emergent herbicidal rating: 0 (0-24)
Sorghum [2]; 5.6 kg/h
  post-emergent herbicidal rating: 0 (0-24)
Rice [3]; 0.28 kg/h
  post-emergent herbicidal rating: 0 (0-24)
Rice [3]; 1.12 kg/h
  post-emergent herbicidal rating: 0 (0-24)
Rice [3]; 5.6 kg/h
  post-emergent herbicidal rating: 0 (0-24)
Wild Buckwheat [4]; 0.28 kg/h
  post-emergent herbicidal rating: 1 (25-49)
Wild Buckwheat [4]; 1.12 kg/h
  post-emergent herbicidal rating: 2 (50-74)
Wild Buckwheat [4]; 5.6 kg/h
  post-emergent herbicidal rating: 3 (75-99)
Hemp Sesbania [5]; 0.28 kg/h
  post-emergent herbicidal rating: 1 (25-49)
Hemp Sesbania [5]; 1.12 kg/h
  post-emergent herbicidal rating: 2 (50-74)
Hemp Sesbania [5]; 5.6 kg/h
  post-emergent herbicidal rating: 3 (75-99)
Wheat [6]; 0.28 kg/h
  post-emergent herbicidal rating: 0 (0-24)
Wheat [6]; 1.12 kg/h
  post-emergent herbicidal rating: 0 (0-24)
Wheat [6]; 5.6 kg/h
  post-emergent herbicidal rating: 1 (25-49)
Crabgrass [7]; 0.28 kg/h
  post-emergent herbicidal rating: 0 (0-24)
Crabgrass [7]; 1.12 kg/h
  post-emergent herbicidal rating: 0 (0-24)
Crabgrass [7]; 5.6 kg/h
  post-emergent herbicidal rating: 0 (0-24)
Sugar Beet [8]; 0.28 kg/h
  post-emergent herbicidal rating: 1 (25-49)
Sugar Beet [8]; 1.12 kg/h
  post-emergent herbicidal rating: 2 (50-74)
Sugar Beet [8]; 5.6 kg/h
  post-emergent herbicidal rating: 3 (75-99)
Panicum Spp [9]; 0.28 kg/h
  post-emergent herbicidal rating: 0 (0-24)
Panicum Spp [9]; 1.12 kg/h
  post-emergent herbicidal rating: 0 (0-24)
Panicum Spp [9]; 5.6 kg/h
  post-emergent herbicidal rating: 0 (0-24)
Soybean [10]; 1.12 kg/h
  pre-emergent herbicidal rating: 1 (25-49)
Soybean [10]; 5.6 kg/h
  pre-emergent herbicidal rating: 2 (50-74)
Sorghum [11]; 1.12 kg/h
  pre-emergent herbicidal rating: 0 (0-24)
Sorghum [11]; 5.6 kg/h
  pre-emergent herbicidal rating: 0 (0-24)
Rice [12]; 1.12 kg/h
  pre-emergent herbicidal rating: 0 (0-24)
Rice [12]; 5.6 kg/h
  pre-emergent herbicidal rating: 0 (0-24)
Wild Buckwheat [13]; 1.12 kg/h
  pre-emergent herbicidal rating: 1 (25-49)
Wild Buckwheat [13]; 5.6 kg/h
  pre-emergent herbicidal rating: 1 (25-49)
Hemp Sesbania [14]; 1.12 kg/h
  pre-emergent herbicidal rating: 1 (25-49)
Hemp Sesbania [14]; 5.6 kg/h
  pre-emergent herbicidal rating: 2 (50-74)
Wheat [15]; 1.12 kg/h
  pre-emergent herbicidal rating: 0 (0-24)
Wheat [15]; 5.6 kg/h
  pre-emergent herbicidal rating: 1 (25-49)
Crabgrass [16]; 1.12 kg/h
  pre-emergent herbicidal rating: 0 (0-24)
Crabgrass [16]; 5.6 kg/h
  pre-emergent herbicidal rating: 0 (0-24)
Sugar Beet [17]; 1.12 kg/h
  pre-emergent herbicidal rating: 3 (75-100)
Sugar Beet [17]; 5.6 kg/h
  pre-emergent herbicidal rating: 3 (75-100)
Panicum Spp [18]; 1.12 kg/h
  pre-emergent herbicidal rating: 0 (0-24)
Panicum Spp [18]; 5.6 kg/h
  pre-emergent herbicidal rating: 0 (0-24)
